According to paper PMC11793105, “A kalihinol analog disrupts apicoplast function and vesicular trafficking in P. falciparum malaria” (Science (New York, N.Y.), 2024):
Where two headings read alike, the source gives them in different places.

Key:
HepG2 = experiment: Human cell line activity, HepG2; type: cell-based; conditions: HepG2, read-out: IC50 (µM) HepG2
[1] = Time course stability to conditions of varying pH (mass spectrometric assay); type: physicochemical; conditions: aqueous buffers pH 2-7, room temperature, 10 min to 16 h; stable down to pH 4
Method: removed under reduced pressure in a rotary evaporator then under high vacuum to afford bis-formamide GB-209-3 as a colorless oil that solidified upon standing (5.2 mg, 96% yield).
Note: GB-209-3 was observed as four different amide rotamer ic species (estimated ratio = 54:35:7:4) under ambient conditions, complicating NMR spectroscopic analysis:
Isonitriles are known to be somewhat reactive functional groups. While previous studies […]
stability,3 we also wanted to account for the potential stomach-acid-catalyzed hydrolysis of the isonitriles in the course of in vivo experiments. We developed a mass spectrometric assay to understand the acid stability of the isonitriles with respect to hydrolysis to the corresponding formamides. […]
Supporting Table 1. a. Ionization (ES+) and b. inlet parameters for quantification of MED6-189 and formamides GB-209-2, and GB-209-3. […]
GB-209-2 and GB-209-3 were determined for each aliquot and plotted over time for respective pH values in the figure below describing the time course stability of MED6 -189 to conditions of varying pH over time via quantitative analysis of formamide products GB -209-2 and GB-209-3.
Time course stability of MED6 -189 to conditions of varying pH over time via quantitative analysis of formamide products GB -209-2 and GB-209-3. […]

P. falciparum cultures = experiment: Exponential killing rate at IC80; type: cell-based, Plasmodium falciparum; conditions: triplicate
[2] = Pharmacokinetics after oral administration to P. falciparum-infected mice (Table S10); type: in vivo, P. falciparum-infected SCID mice; conditions: for Cmax: 50mg/kg oral in 1% Methylcellulose; for AUC(0-inf): read-out: AUCINF_obs
Method: An Acquity ultra-performance liquid chromatography (UPLC) system (Waters Corp., Milford, MA, USA) couple to a triple quadrupole mass spectrometer (API 4000, AB Sciex, Foster City, CA, USA) was used for the analysis ([99]).
Blood concentration time data were analyzed by Non-Compartmental PK analysis using Phoenix WinNonlin software (Certara, NY, US) to calculate PK parameters. […]
mg/kg per day for four consecutive days. Treatment started at day 3 and finished at day 6 after infection. In all cases, parasitemia was assessed in samples from peripheral blood obtained at days 3, 4, 5, 6, and 7 after infection. Fresh samples of peripheral blood from P. falciparum-infected mice were stained with TER-119-Phycoerythrine (marker of murine erythrocytes) and SYTO-16 (nucleic acid dye) and then analyzed by flow cytometry (FACSCalibur, BD). Efficacy was determined using flow cytometry data as the percentage of Parasitemia reduction compared with […]
blood samples obtained during the 23 h period after the first dose in all mice. Peripheral blood samples (15 µL) were taken at frequent intervals, mixed with 30 µL of H2O milli Q and immediately frozen on dry ice. The frozen samples were stored at −80 °C until analysis. Vehicle-treated mice experienced the same blood-sampling regimen (table S9, S10).
Bioanalysis and pharmacokinetics analysis: LC-MS
Bioanalysis of in vivo samples: Sample pretreatment Before the analysis 15ul of blood samples were defrost at ambient temperature and mixture with 200ul of ACN:MeOH (80:20). After protein precipitation samples were filtered by 0.45um filter plate (Multiscreen Solvinert 0.45um FTPE, Millipore). The 2ul TFA (Trifluoroacetic acid, sigmaAldrich) were added to each filtered sample in order to derivatize the compound to formamide analogue. This process occurs spontaneously.
LC-MS analysis An Acquity Ultra-Performance liquid chromatography (UPLC) system (Waters Corp., Milford, MA, USA) couple to a triple quadrupole mass spectrometer (API 4000™, AB Sciex, Foster City, CA, USA) was used for the analysis. The MS/MS transition was 311.340 / […]
The chromatographic separation was carried out at 0.4ml/min in a Acquity UPLC™ BEH C18 column (50x2.1 mm i.d., […]; Waters Corp.) at 40 °C with Acetonitrile (sigmaAldrich) and 0.1% formic acid as eluents.
Pharmacokinetic analysis Blood concentration time data were analyzed by Non-Compartmental PK analysis using Phoenix WinNonlin software (Certara NY, US) to calculate PK parameters. The maximum observed concentration (Cmax) and the time to reach it (Tmax), were determined. The area under concentration-time curve from dosing at time zero to the last measured concentration […]
time (AUClast) and the total area under concentration-time curve from time zero extrapolated to infinity (AUCinf), were calculated using a linear trapezoidal rule. […]

[3] = Tolerability study and toxicological profile; type: in vivo, Male CD1 mouse; conditions: for adverse effects (Functional Observational Battery): oral
Method: Tolerability studies used Male CD1 (20-22 g Envigo).
Blood samples for analysis were carried out in the Abacus5 junior Vet (Practice CVM S.L.L). Clinical chemistry was performed by mean analysis of whole blood in Vetscan (ABAXIS) and F560 (Menarini) analyzer and by mean analysis of plasma.
Tolerability study Male CD1 (20-22g Envigo) were used in tolerability studies.
All animal studies were ethically reviewed and carried out in accordance with European Directive
were housed in cages (Tecniplast®). The cages contained autoclaved dust free corncob bedding
(Rehofix MK2000, 1.7-2.2 mm particle size) and carry filters covers. Animal maintenance
standard g-irradiated standard rodent diet (Envigo Teklad 2914) and ultra-filtered water was
provided ad libitum. Environmental conditions: Photoperiods, simulated dawn/dusk facility, were
adjusted to 12h of light (300 lux) and 12h darkness daily. The temperature range was 22± 2 °C.
Relative humidity was 55% ± 10 and the air room was changed 15-20 times per hour.
Environmental enrichment included nesting material (nesting cups, LBS), a red-tinted igloo
(Datesand), a hanging clear tunnel (Datesand, and two wood blocks (Datensand).
Protocol design Male CD1 mouse (n=1) was dosed with an initial dose at 100 mg/kg (1-day, oral
route, once a day, 10ml/kg). The animals were observed during the first four hours after
administration and after 24h. The neurobehavioral assessment Functional Observational Battery
the modified symptom-based Up-&-Down method and adjusted a constant factor (1.6). Other male
Two mice were treated at 50
To confirm the data, 3 animals per dose
(100mg/kg and 63.4 mg/kg) and vehicle group with 1% Methylcellulose + 0.5% Tween (n=2) were
dosed. Systemic exposure levels at different times were taken (0.5h, 2h, 4h, 8, 24, 48h) of treated
animals (n=3 per group) and a toxicological profile was performed after 7 days of treatment
(hematology, clinical chemistry, and necropsy). Additionally in the same animals with the same
scheduling sampling, blood samples of 15 uL were taken from lateral tail vein and recovered in a
vial with the same quantity of water, mix and freeze until bioanalytical quantification for the
determination of blood level exposures and pharmacokinetic analysis.
Toxicological Profile The bodyweight of animals was recorded before dosage, 24 hours after and
every day in animals kept for 7 days. Any sign of toxicity was recorded for 4h and 24h hours after
drug administration (Functional Observational Battery). All animals were sacrificed by CO2
inhalation. Blood samples for analysis were then taken by intracardiac puncture and fractionated
to blood recount and serum analysis. The blood recount was carried out in the Abacus5 junior Vet
→ (Practice CVM S.L.L). Clinical chemistry was performed by mean analysis of whole blood in
Vetscan→ (ABAXIS) & F560 (Menarini→) analyzer and by mean analysis of plasma, obtained
after centrifugation at 1800g rpm for 10 min in S-Microvette tubes (Sarstedt→) with Heparin-
Lithium. The plasma parameters tested were: glucose, ALP, AST, ALT, GGT, LDH, AMY, CK
Calcium, Phosphate, Sodium, Potassium, total bilirrubin, total protein, albumin, blood ureic
nitrogen (BUN), creatinine, triglycerides, cholesterol. After necropsy, several organs (liver,
kidney, spleen, Caecum, and stomach) were removed and weighed. Liver, kidney, and spleen were
fixed in formalin (formaldehyde 10%) to further histopathology study (Hematoxilin/Eosin stain).

[4] = system: P. falciparum Pf3D70087/N9; experiment: In vivo efficacy, standard 4-day test in humanized mouse model of P. falciparum malaria; set-up: species or system NSG mice engrafted with human erythrocytes; conditions: 50 mg/kg orally, once a day for 4 days, from day 3 after infection; by the seventh day
Text: NOD scid gamma (NSG) mice were intravenously engrafted with human red blood cells (hRBCs) daily until the percentage of hRBCs reached ~50%, at which point the mice were infected with 2 × 10^7 P. falciparum–infected erythrocytes.
Peripheral blood from P. falciparum–infected mice was stained with TER-119-phycoerythrin (marker of murine erythrocytes) and SYTO-16 (nucleic acid dye) and then analyzed by flow cytometry (FACSCalibur, BD).
Plasmodium falciparum-infected erythrocytes (P. falciparum Pf3D70087/N9).
The mice were obtained from Charles River Labs, bred specifically for
research and certified pathogen free.
NSG mice were engrafted daily with human red blood cells intravenously injected in a final
volume of 0.7 ml (50% hematocrit). Mice were engrafted during two weeks prior to P. falciparum
infection, mice achieve around 60% of human red blood cells in mice peripheral blood.
P. falciparum infections were performed by intravenous inoculation. All mice were randomly
assigned to their corresponding treatment.
mg/kg per day for four consecutive days. […] In all cases, parasitemia was assessed in samples from peripheral blood obtained at days 3, 4, 5, 6, and 7 after infection. Fresh samples of peripheral blood from P. falciparum-infected mice were stained with TER-119-Phycoerythrine (marker of murine erythrocytes) and SYTO-16 (nucleic acid dye) and then analyzed by flow cytometry (FACSCalibur, BD).

[5] = 50mg/kg oral, infected mice, individual mice
[6] = SCID, mouse, whole blood, po, 50 mg/kg, 50mg/kg oral, infected mice, Mean
[7] = SCID, mouse, whole blood, po, 50 mg/kg, 50mg/kg oral, infected mice, individual mice

**Q.** Which IC50 (HepG2) does the source give for `[C-]#[N+][C@]1(C)CC[C@H]2[C@@H]([C@@H](C(C)C)CC[C@]2(C)[N+]#[C-])[C@H]1O` [MED6-189] here?
**A.** 34 µM

**Q.** What about the “stability to aqueous acidic conditions (hydrolysis to formamides)” value [1] of the same compound?
**A.** reasonable stability

**Q.** What about the “Exponential killing rate k = (1/t)* log10(N0/Nt)” value (P. falciparum cultures; at IC80, 48 HPS) of the same compound?
**A.** 0.008801

**Q.** What about the “Exponential killing rate k = (1/t)* log10(N0/Nt)” value (P. falciparum cultures; at IC80, 72 HPS) of the same compound?
**A.** 0.007941

**Q.** And the “Exponential killing rate k = (1/t)* log10(N0/Nt)” value (P. falciparum cultures; at IC80, 100 HPS)?
**A.** 0.0183

**Q.** And the “accumulation in blood (levels at 96 hrs)” value ([2]; 50 mg/kg oral every 24h, four days)?
**A.** no accumulation

**Q.** And the Cmax ([2]; infected mice, individual mice 1 and 2)?
**A.** 8980 ng/mL

**Q.** And the Tlast ([2]; 50mg/kg oral, infected mice, Mean)?
**A.** 24 h

**Q.** And the AUCINF_obs [2, 5]?
**A.** 115.877 µg·h/mL

**Q.** And the AUClast [2, 5]?
**A.** 114.617 µg·h/mL

**Q.** And the Tlast [2, 5]?
**A.** 24 h

**Q.** And the Cmax ([2]; SCID, mouse, whole blood, po, 50 mg/kg, infected mice, Mean, read-out: Cmax)?
**A.** 7920 ng/mL

**Q.** What about the Cmax ([2]; SCID, mouse, whole blood, po, 50 mg/kg, infected mice, individual mice 1 and 2, read-out: Cmax) of the same compound?
**A.** 6860 ng/mL

**Q.** What about the AUC(0-t) [2, 6] of the same compound?
**A.** 101 µg·h/mL

**Q.** What about the AUC(0-inf) [2, 6] of the same compound?
**A.** 105 µg·h/mL

**Q.** What about the AUC(0-t) [2, 7] of the same compound?
**A.** 86.8 µg·h/mL

**Q.** What about the AUC(0-inf) [2, 7] of the same compound?
**A.** 94.1 µg·h/mL

**Q.** And the Tmax ([2]; SCID, mouse, whole blood, 50mg/kg oral, infected mice, individual mice)?
**A.** 7 h

**Q.** What about the “adverse effects (Functional Observational Battery)” value (“adverse effects” below) ([3]; 50 mg/kg, two mice) of the same compound?
**A.** didn´t show adverse effects

**Q.** And the “adverse effects” value ([3]; 62.5mg/kg, one mouse)?
**A.** showed adverse effects

**Q.** What about the “adverse effects” value ([3]; 100 mg/kg, once, n=1) of the same compound?
**A.** Adverse effects were found

**Q.** What about the adverse events ([3]; doses up to 50 mg/kg) of the same compound?
**A.** did not exhibit any adverse events

**Q.** And the “hematology, clinical chemistry, necropsy” value ([3]; doses up to 50 mg/kg)?
**A.** no significant changes

**Q.** And the “reduction in parasitemia in the peripheral blood” value [4]?
**A.** > 90%
